# In PMC12714728, “VHH antibody loop guides design of a synthetic macrocyclic peptide that potently blocks influenza virus membrane fusion” (npj Viruses, 2025):
# Starred links: 1 amine or outer side, 2 acyl side, 3 side chain; linkers in the order of their positions; H or OH if unused. Positions of bridges follow the written chain, without caps; N, C: chain ends. Non-standard residues stand in square brackets, D forms with d. Residues, ends and D or L forms follow the SMILES beside them. ξ: configuration not given here. ξhhPhe = NC(CCCc1ccccc1)C(=O)O; Suc = O=C(CCC(=O)[*:2])[*:1]; dAbu = CC[C@@H](N)C(=O)O
# Columns and labels:
# [1] = system: H1/NCa HA (A/New Caledonia/20/1999 (H1N1)); format: binding, influenza A virus
# [2] = system: H1/Cal HA (A/California/07/2009 (H1N1)); format: binding, influenza A virus
# [3] = system: H5/Viet HA (A/Vietnam/1203/2004 (H5N1)); format: binding, influenza A virus
# [4] = system: H1N1 A/Brisbane/59/2007 (H1/Bri) HA; format: biochemical, influenza A virus; conditions: pH 5.25
# [5] = system: HAs from group 2 and influenza B viruses; format: binding, influenza A and B viruses
# [6] = molecular target: group 1 H1/Cal, H1/NCa, and H5/Viet HAs; format: binding, influenza A virus; conditions: for Kd: read-out: KD by SPR (range over HAs)
# [7] = system: group 1 H1/Cal, H1/NCa, and H5/Viet HAs; format: binding, influenza A virus; conditions: read-out: IC50 in AlphaLISA (range over HAs)
# [8] = system: H5/Viet virus (A/Vietnam/1203/2004 (H5N1))
SMILES,IC50 [1],IC50 [2],IC50 [3],IC50 [4],Binding to HAs of group 2 and influenza B viruses [5],Kd [6],IC50 [7],Neutralization activity against H5N1 virus (in words) [8],half-life / residence time t1/2 (range over HAs) [6],koff (range over HAs) [6]
CSCC[C@@H]1NC(=O)[C@H](CCC(=O)O)NC(=O)CNC(=O)[C@H](C)NC(=O)[C@H](C(C)C)NC(=O)CNC(=O)[C@H](CC(C)C)NC(=O)[C@@H]2CCCN2C(=O)[C@H](CC(=O)O)NC(=O)[C@H](CCCNC(=N)N)NC(=O)[C@H](Cc2ccc(O)cc2)NC(=O)[C@H](CC(C)C)NC(=O)[C@@H](NC(=O)CCC(=O)O)CSSC[C@@H](C(N)=O)NC(=O)CNC1=O [CP10] (Suc-CLYRDPLGVAGEMGC-NH2; disulfide 1-15),2.93 ± 0.32 µM,0.61 ± 0.08 µM,7.61 ± 1.56 µM,0.46 ± 0.04 µM,–,–,–,–,–,–
CSCC[C@@H]1NC(=O)CNC(=O)CNC(=O)[C@H](C)NC(=O)[C@H](C(C)C)NC(=O)CNC(=O)[C@H](CC(C)C)NC(=O)[C@@H]2CCCN2C(=O)[C@H](CC(=O)O)NC(=O)[C@H](CCCNC(=N)N)NC(=O)[C@H](Cc2ccc(O)cc2)NC(=O)[C@@H](NC(=O)CCC(=O)O)CSSC[C@@H](C(N)=O)NC1=O [CP11],4.99 ± 0.6 µM,4.1 ± 0.76 µM,7.78 ± 2.63 µM,8.52 ± 0.39 µM,–,–,–,–,–,–
CC[C@H]1NC(=O)[C@H](C(C)C)NC(=O)CNC(=O)C(CCCc2ccccc2)NC(=O)[C@@H]2CCCN2C(=O)[C@H](CC(=O)O)NC(=O)[C@H](CCC(=O)O)NC(=O)[C@H](Cc2ccc(O)cc2)NC(=O)[C@H](CC(C)C)NC(=O)[C@H]2CCCN2C(=O)CNC(=O)CNC(=O)[C@H](CCSC)NC(=O)CNC(=O)CNC1=O (stereo partly drawn) [CP7] (cyclo([dP]LYEDP[ξhhPhe]GV[dAbu]GGMGG)),0.22 ± 0.01 µM,0.36 ± 0.01 µM,14.8 ± 0.57 µM,3.54 ± 0.31 µM,–,–,–,–,–,–
CSCC[C@H](NC(=O)CNC(=O)CNC(=O)[C@H](C)NC(=O)[C@@H](NC(=O)CNC(=O)[C@H](CC(C)C)NC(=O)[C@@H]1CCCN1C(=O)[C@H](CC(=O)O)NC(=O)[C@H](CCCNC(=N)N)NC(=O)[C@H](Cc1ccc(O)cc1)NC(=O)[C@H](CC(C)C)NC(=O)[C@H](CO)NC(=O)[C@@H](NC(=O)CCC(=O)O)C(C)C)C(C)C)C(=O)NCC(=O)N[C@H](C(=O)N[C@@H](Cc1ccc(O)cc1)C(N)=O)C(C)C [LP1],22.9 ± 4.14 µM,11.5 ± 2.5 µM,47.9 ± 3.77 µM,–,no binding was observed,3 to 7 µM,11 to 47 µM,–,–,–
CSCC[C@@H]1NC(=O)CNC(=O)CNC(=O)[C@H](C)NC(=O)[C@H](C(C)C)NC(=O)CNC(=O)[C@H](CC(C)C)NC(=O)[C@@H]2CCCN2C(=O)[C@H](CC(=O)O)NC(=O)[C@H](CCC(=O)O)NC(=O)[C@H](Cc2ccc(O)cc2)NC(=O)[C@H](CC(C)C)NC(=O)[C@H](CO)NC(=O)[C@@H]2CCCN2C(=O)[C@H]2CCCN2C(=O)[C@H](C(C)C)NC(=O)CNC1=O [CP2],12.7 ± 1.64 µM,5.13 µM,55.1 µM,21.9 ± 3.24 µM,–,–,–,–,–,–
CSCC[C@@H]1NC(=O)CNC(=O)CNC(=O)[C@H](C)NC(=O)[C@H](C(C)C)NC(=O)CNC(=O)[C@H](CC(C)C)NC(=O)[C@@H]2CCCN2C(=O)[C@H](CC(=O)O)NC(=O)[C@H](CCC(=O)O)NC(=O)[C@H](Cc2ccc(O)cc2)NC(=O)[C@H](CC(C)C)NC(=O)[C@H](CO)NC(=O)[C@H](C(C)C)NC(=O)[C@H]2CCCN2C(=O)CNC(=O)[C@H](Cc2ccc(O)cc2)NC(=O)[C@H](C(C)C)NC(=O)CNC1=O [CP4],0.075 ± 0.01 µM,0.1 µM,0.76 ± 0.086 µM,0.39 ± 0.04 µM,–,–,–,complete abolishment of neutralization activity,2 to 16 s,0.04–0.32
CSCC[C@@H]1NC(=O)CNC(=O)CNC(=O)[C@H](C)NC(=O)[C@H](C(C)C)NC(=O)CNC(=O)[C@H](CC(C)C)NC(=O)[C@@H]2CCCN2C(=O)[C@H](CC(=O)O)NC(=O)[C@H](CCC(=O)O)NC(=O)[C@H](Cc2ccc(O)cc2)NC(=O)[C@H](CC(C)C)NC(=O)[C@@H](NC(=O)CCC(=O)O)CSSC[C@@H](C(N)=O)NC(=O)CNC1=O [CP9],0.7 ± 0.02 µM,0.3 ± 0.03 µM,5.59 ± 0.21 µM,0.23 ± 0.02 µM,–,–,–,–,–,–
CSCC[C@@H]1NC(=O)CNC(=O)CNC(=O)[C@H](C)NC(=O)[C@H](C(C)C)NC(=O)CNC(=O)[C@H](CC(C)C)NC(=O)[C@@H]2CCCN2C(=O)[C@H](CC(=O)O)NC(=O)[C@H](CCCNC(=N)N)NC(=O)[C@H](Cc2ccc(O)cc2)NC(=O)[C@H](CC(C)C)NC(=O)[C@@H](NC(=O)CCC(=O)O)CSSC[C@@H](C(N)=O)NC(=O)CNC1=O [CP8],0.16 ± 0.02 µM,0.11 µM,1.55 ± 0.29 µM,0.54 ± 0.01 µM,–,0.32 to 0.33 µM,0.11 to 1.55 µM,–,–,–
